Test results from the supplement of paper PMC10307832.

How the values were obtained:
Assay in all cases: relative viability (nuclei count vs DMSO), 5 days (fraction); higher = more cells survive
[1] = system: NCI-H596
Summary of the method: (§1)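 Relative viability was taken as the ratio of nuclei in treated wells to nuclei in vehicle wells. Lung cancer cell lines in 1536-well plates received compounds by pin tool one day after seeding, either one drug alone or a fixed anchor-drug dose plus five library-drug doses (not always all listed) in √10 steps. Nuclei were counted on 4× images after 5 days of treatment, and values are medians of duplicate plates.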

[2] = system: NCI-H522
Summary of the method: as §1

[3] = system: PC-14
Summary of the method: as §1

[4] = system: NCI-H460
Summary of the method: as §1

[5] = system: NCI-H1915
Summary of the method: as §1

[6] = system: RERF-LC-KJ
Summary of the method: as §1

[7] = system: NCI-H727
Summary of the method: as §1

[8] = system: NCI-H1563
Summary of the method: as §1

[9] = system: NCI-H1755
Summary of the method: as §1

[10] = system: LXF-289
Summary of the method: as §1

[11] = system: NCI-H322M
Summary of the method: as §1

## Cc1sc2c(c1C)C(c1ccc(Cl)cc1)=N[C@@H](CC(=O)OC(C)(C)C)c1nnc(C)n1-2 [JQ1] + N=C(N)NC(=N)NCCc1ccccc1 [Phenformin] (partner 250 µM)
[1]; first compound 0.04 µM
  relative viability: 0.702
[1]; first compound 0.1265 µM
  relative viability: 0.812
[1]; first compound 0.4 µM
  relative viability: 0.829
[1]; first compound 1.265 µM
  relative viability: 0.374
[1]; first compound 4 µM
  relative viability: 0.348
[2]; first compound 0.04 µM
  relative viability: 0.656
[2]; first compound 0.1265 µM
  relative viability: 0.615
[2]; first compound 0.4 µM
  relative viability: 0.55
[2]; first compound 1.265 µM
  relative viability: 0.519
[2]; first compound 4 µM
  relative viability: 0.323
[3]; first compound 0.04 µM
  relative viability: 0.485
[3]; first compound 0.1265 µM
  relative viability: 0.237
[3]; first compound 0.4 µM
  relative viability: 0.432
[3]; first compound 1.265 µM
  relative viability: 0.154
[3]; first compound 4 µM
  relative viability: 0.167
[4]; first compound 0.04 µM
  relative viability: 0.503
[4]; first compound 0.1265 µM
  relative viability: 0.271
[4]; first compound 0.4 µM
  relative viability: 0.123
[4]; first compound 1.265 µM
  relative viability: 0.0422
[4]; first compound 4 µM
  relative viability: 0.041
[5]; first compound 0.04 µM
  relative viability: 0.347
[5]; first compound 0.1265 µM
  relative viability: 0.334
[5]; first compound 0.4 µM
  relative viability: 0.329
[5]; first compound 1.265 µM
  relative viability: 0.212
[5]; first compound 4 µM
  relative viability: 0.177
[6]; first compound 0.04 µM
  relative viability: 0.402
[6]; first compound 0.1265 µM
  relative viability: 0.374
[6]; first compound 0.4 µM
  relative viability: 0.324
[6]; first compound 1.265 µM
  relative viability: 0.316
[6]; first compound 4 µM
  relative viability: 0.292
[7]; first compound 0.04 µM
  relative viability: 0.458
[7]; first compound 0.1265 µM
  relative viability: 0.282
[7]; first compound 0.4 µM
  relative viability: 0.368
[7]; first compound 1.265 µM
  relative viability: 0.393
[7]; first compound 4 µM
  relative viability: 0.343
[8]; first compound 0.04 µM
  relative viability: 0.672
[8]; first compound 0.1265 µM
  relative viability: 0.571
[8]; first compound 0.4 µM
  relative viability: 0.682
[8]; first compound 1.265 µM
  relative viability: 0.596
[8]; first compound 4 µM
  relative viability: 0.568
[9]; first compound 0.04 µM
  relative viability: 0.687
[9]; first compound 0.1265 µM
  relative viability: 0.501
[9]; first compound 0.4 µM
  relative viability: 0.506
[9]; first compound 1.265 µM
  relative viability: 0.462
[9]; first compound 4 µM
  relative viability: 0.419
[10]; first compound 0.04 µM
  relative viability: 0.518
[10]; first compound 0.1265 µM
  relative viability: 0.474
[10]; first compound 0.4 µM
  relative viability: 0.444
[10]; first compound 1.265 µM
  relative viability: 0.323
[10]; first compound 4 µM
  relative viability: 0.316
[11]; first compound 0.04 µM
  relative viability: 0.686
[11]; first compound 0.1265 µM
  relative viability: 0.746
[11]; first compound 0.4 µM
  relative viability: 0.66
[11]; first compound 1.265 µM
  relative viability: 0.373
[11]; first compound 4 µM
  relative viability: 0.417
